{
  "source": "paper PMC5107945",
  "about": "“Abscinazole-E3M, a practical inhibitor of abscisic acid 8′-hydroxylase for improving drought tolerance” (Scientific Reports, 2016)",
  "key": {"[1]": {"tested_on": "ABA-responsive genes ZmLEA, Zm.12309.1.S and ZmCOR410", "assay": "qRT-PCR of ABA-responsive genes in maize", "assay_type": "in vivo, Maize (cv. Gold rush)", "details": "maize 2-week-old seedlings, roots dipped in 100 μM overnight, aerial shoot tissues", "description": "The effects of (-)-Abz-[…] were also determined relative to stomatal apertures. Arabidopsis grown in soil pots underwent moderate drought stress under the optimal growth conditions of 22 °C and 60% relative humidity. Under these growth conditions, the leaf surface temperature of the mock-treated controls was 19.5 °C, which was lower than the surrounding atmospheric temperature because of transpirational water loss (Fig. 6a,b)[30]. […] Finally, we examined the effects of (-)-Abz-[…] on drought tolerance under more practical conditions. Three-week-old Arabidopsis were sprayed with an aqueous solution containing 50 μM (-)-Abz-[…]. Water was not supplied for 12 days, and then the plants were rehydrated. […] We also tested the effects of (-)-Abz-[…] on a monocot crop, maize, to evaluate whether (-)-Abz-[…] affected stomatal movement and enhanced ABA response across plant species. […] Thus, the effects of (-)-Abz-[…] were not restricted to the model plant Arabidopsis. Figure 7 Effects of (-)-Abz-[…] on maize. (a) Thermal images of the leaf surface temperatures of (-)-Abz-[…]-treated maize plants. (b) Leaf surface temperatures of (-)-Abz-[…]-treated maize plants. The stomatal conductance (c) and transpiration rate (d) in (-)-Abz-[…]-treated maize at different light intensities. […] Values are means with s.d. (n = 4 for leaf surface temperature, n = 3 for stomatal conductance and transpiration rate). […]"}, "[2]": {"target": "T1, Rice recombinant CYP701A6 (ent-kaurene oxidase) (Oryza sativa subsp. japonica, UniProt Q5Z5R4)", "T1 construct": "made in house; host or cells: insect cells (baculovirus vector)", "T1 sequence (Q5Z5R4 1-505)": "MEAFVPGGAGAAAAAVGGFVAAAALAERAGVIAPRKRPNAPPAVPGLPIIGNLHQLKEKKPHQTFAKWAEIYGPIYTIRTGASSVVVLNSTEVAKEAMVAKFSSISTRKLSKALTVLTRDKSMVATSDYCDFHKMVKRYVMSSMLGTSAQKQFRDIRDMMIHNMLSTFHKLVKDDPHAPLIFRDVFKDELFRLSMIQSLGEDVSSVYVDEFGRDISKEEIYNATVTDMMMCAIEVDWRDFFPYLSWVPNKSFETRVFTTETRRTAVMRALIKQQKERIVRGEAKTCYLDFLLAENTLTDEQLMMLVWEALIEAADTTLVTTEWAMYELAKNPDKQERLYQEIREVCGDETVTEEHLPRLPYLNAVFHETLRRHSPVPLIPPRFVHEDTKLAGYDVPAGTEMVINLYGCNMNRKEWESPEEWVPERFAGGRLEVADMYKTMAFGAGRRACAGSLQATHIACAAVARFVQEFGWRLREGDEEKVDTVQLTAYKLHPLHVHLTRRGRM", "assay": "CYP701A6 inhibition assay (formation of end product KA)", "assay_type": "biochemical", "details": "Rice recombinant CYP701A6 expressed in insect cells; 10 μM ent-kaurene; formation of KA; read-out: CYP701A IC50", "description": "To evaluate the enzymatic selectivity between CYP707A and CYP701A, we examined the inhibitory activity against recombinant rice containing CYP701A6 expressed in insect cells using a baculovirus vector. This enzyme catalyses all three steps to KA via the corresponding alcohol and aldehyde, and consequently, the kinetic analysis is very complicated. Therefore, we evaluate the IC50 value for the formation of the end product, KA, instead of the KI value.\nReaction mixtures, containing 0.058 μM of […] microsomes, ATR2 (0.115 U), ent-kaurene (final concentration of 10 μM), inhibitors (0 for control, 1.5–1,500 μM in 8 μL dimethylformamide), and 20 mM NADPH in 500 mM potassium phosphate buffer (pH 7.4), were incubated at 30 °C for 10 min. Reactions were initiated by adding NADPH and stopped by the addition of 100 μL of 1 M HCl. Abietic acid, as the internal standard, was then added to the reaction product, which was extracted with EtOAc (400 μL × 3). The organic phase was dried over Na2SO4 and concentrated in vacuo. To derivatize the reaction products, MeOH (50 μL) and trimethylsilyldiazomethane (2 M in 5 μL hexane) were added, and the reaction mixture was incubated at room temperature for 10 min. The organic solvent was removed under N2, and samples were adjusted to 150 μL with hexane before a gas chromatography-mass spectrometry analysis (QP2010-plus; Shimadzu Corp., Kyoto, Japan). The conditions were as follows: the column was DB-5ms (0.25 mm id × 15 m, 0.25 μm film thickness; Agilent J & W, Folsom, CA, USA), the carrier gas was He, the flow rate was 1.65 mL min^−1, the injection port temperature was 280 °C, splitless injection, and the programmed column temperature was a step gradient of 80 °C for 1 min, 80–200 °C at 18 °C min^−1, 200–210 °C at 2 °C min^−1, 210–280 °C at 30 °C min^−1, and then 280 °C for 3 min. The KA content was calculated from the area ratio of molecular and fragment ions of methyl KA (m/z 316, 273, and 257) to those of methyl abietate (m/z 316 and 256). The inhibition ratio was defined as [(A − B)/A] × 100, where A = the amount of methyl KA/methyl abietate when the inhibitor was absent from the reaction mixture (control), and B = the amount of methyl KA/methyl abietate when the inhibitor was present. All of the tests were conducted at least three times."}},
  "data": [
    {"substance": "abscinazole-E3M [(−)-6]", "values": [
      {"measurement": "Expression of ABA-responsive genes ZmLEA, Zm.12309.1.S and ZmCOR410", "setting": "[1]", "value": "induced the expression of ABA-responsive genes"},
      {"measurement": "IC50", "setting": "[2]", "value": 780, "unit": "nM"}
    ]}
  ]
}
